Laboratory results taken from patent publication US5925730A, “GnRH antagonists” (Ferring BV, priority 1997, dated 1999).
Starred links: 1 amine or outer side, 2 acyl side, 3 side chain; linkers in the order of their positions; H or OH if unused. Non-standard residues stand in square brackets, D forms with d. Residues, ends and D or L forms follow the SMILES beside them. Groups on a side chain read outwards from the residue. dPhe(4-NHCONH2) = NC(=O)Nc1ccc(C[C@@H](N)C(=O)O)cc1; Phe(4-NHCONH2) = NC(=O)Nc1ccc(C[C@H](N)C(=O)O)cc1; dPhe(4-NH2) = Nc1ccc(C[C@@H](N)C(=O)O)cc1; dPhe(4-Cl) = N[C@H](Cc1ccc(Cl)cc1)C(=O)O; Phe(4-NH2) = Nc1ccc(C[C@H](N)C(=O)O)cc1; d2Nal = N[C@H](Cc1ccc2ccccc2c1)C(=O)O; Lys(iPr) = CC(C)NCCCC[C@H](N)C(=O)O; d3Pal = N[C@H](Cc1cccnc1)C(=O)O; CO = O=C([*:1])[*:2]

What was measured:
secretion of LH = test: in vivo rat LH suppression test (circulating LH levels in castrated male rats after sc injection); set-up: species or system castrated male Sprague-Dawley rats; settings: for effectiveness in suppression of LH compared with Acyline, day 1 through day 4 (96 hours): days 1-4; for effectiveness in suppression of LH compared with Acyline, first two days: days 1-2; for suppression of LH compared with Acyline at days 3 and 4 (72 and 96 hours; after the first 2 days): days 3-4; for effectiveness in suppression of LH compared with Acyline, day 1 through day 3: days 1-3
Experimental: The peptide is assayed in vivo to determine its effectiveness to suppress the secretion of LH in rats. Measurement of circulating LH levels in castrated male Sprague-Dawley rats treated subcutaneously with the peptide is carried out as reported in C. Rivier et al. Biol. Reproduc., 1983, 29, 374-378. The peptides are first dissolved at a concentration of 1.0 or 10 mg/ml in bacteriostatic water and then further diluted in 0.04 M phosphate buffer containing 0.1% BSA. Subsequent dilutions are made in phosphate buffer. The peptides are injected sc into 5 rats, and blood samples (300 μl) are collected under metotane anesthesia. Sera (50 μl) are tested for LH levels in duplicate using reagents provided by the National Pituitary and Hormone Distribution Program of the NIDDK.

[1] = hydrophilicity by RP-HPLC retention time (TEAP pH 7.0 / CH3CN gradient); assay type: physicochemical

Molecule: CC(=O)N[C@H](Cc1ccc2ccccc2c1)C(=O)N[C@H](Cc1ccc(Cl)cc1)C(=O)N[C@H](Cc1cccnc1)C(=O)N[C@@H](CO)C(=O)N[C@@H](Cc1ccc(NC(N)=O)cc1)C(=O)N[C@H](Cc1ccc(NC(N)=O)cc1)C(=O)N[C@@H](CC(C)C)C(=O)N[C@@H](CCCCNC(C)C)C(=O)N1CCC[C@H]1C(=O)N[C@H](C)C(N)=O [Example 1L, Ac-β-D-2Nal-D-4Cpa-D-3Pal-Ser-4Aph(carbamoyl)-D-4Aph(carbamoyl)-Leu-Lys(isopropyl)-Pro-D-Ala-NH2] (Ac-[d2Nal][dPhe(4-Cl)][d3Pal]S[Phe(4-NHCONH2)][dPhe(4-NHCONH2)]L[Lys(iPr)]P[dA]-NH2)
- duration of bioactivity for the suppression of LH (rating in words) (secretion of LH; 50 micrograms sc): long-acting
- effectiveness in suppression of LH compared with Acyline, day 1 through day 4 (96 hours) (secretion of LH; 50 micrograms sc): about as effective as Acyline

Molecule: CNC(=O)Nc1ccc(C[C@H](NC(=O)[C@H](CO)NC(=O)[C@@H](Cc2cccnc2)NC(=O)[C@@H](Cc2ccc(Cl)cc2)NC(=O)[C@@H](Cc2ccc3ccccc3c2)NC(C)=O)C(=O)N[C@H](Cc2ccc(NC(=O)NC)cc2)C(=O)N[C@@H](CC(C)C)C(=O)N[C@@H](CCCCNC(C)C)C(=O)N2CCC[C@H]2C(=O)N[C@H](C)C(N)=O)cc1 [Example 1M, Ac-β-D-2Nal-D-4Cpa-D-3Pal-Ser-4Aph(methylcarbamoyl)-D-4Aph(methylcarbamoyl)-Leu-Lys(isopropyl)-Pro-D-Ala-NH2] (Ac-[d2Nal][dPhe(4-Cl)][d3Pal]S[Phe(4-NH2)]([CO-NHMe])[dPhe(4-NH2)]([CO-NHMe])L[Lys(iPr)]P[dA]-NH2)
- effectiveness in suppression of LH compared with Acyline, first two days (secretion of LH; 50 micrograms sc): about as effective as Acyline
- suppression of LH compared with Acyline at days 3 and 4 (72 and 96 hours; after the first 2 days) (secretion of LH; 50 micrograms sc): begins to drop off somewhat

Molecule: Ac-D-2Nal-D-4Cpa-D-3Pal-Ser-4Aph(D-hydroorotyl)-D-4Amf(Ac)-Leu-ILys-Pro-D- Ala-NH2 [Example 5A]
- suppression of LH compared with Acyline at 96 hours / 4 days (after day 3) (secretion of LH; 50 micrograms sc, 96 hours): somewhat superior to Acyline
- effectiveness in suppression of LH compared with Acyline, day 1 through day 3 (secretion of LH; 50 micrograms sc): substantially the same as Acyline

Molecule: Ac-D-2Nal-D-4Cpa-D-3Pal-Ser-4Aph(D-hydroorotyl)-D-4Amf(Cbm)-Leu-ILys-Pro-D-Ala-NH2 [Example 5]
- effectiveness in suppression of LH compared with Acyline, first two days (secretion of LH; 50 micrograms sc): about as long as Acyline
- suppression of LH compared with Acyline at days 3 and 4 (72 and 96 hours; after the first 2 days) (secretion of LH; 50 micrograms sc): some lesser degree of suppression

Molecule: Ac-D-2Nal-D-4Cpa-D-3Pal-Ser-4Aph(D/L-2-imidazolidone-4-carbonyl)-D-4Aph(Ac)-Leu-ILys-Pro-D-Ala-NH2 [Example 3]
- duration of bioactivity for the suppression of LH (rating in words) (secretion of LH; 50 micrograms sc): long duration
- suppression of LH compared with Acyline at days 3 and 4 (72 and 96 hours; after the first 2 days) (secretion of LH; 50 micrograms sc): marginally better

Molecule: Ac-D-2Nal-D-4Cpa-D-3Pal-Ser-4Aph(L-Imz)-D-4Amf(carbamoyl)-Leu-ILys-Pro-D-Ala-NH2 [Example 3B]
- duration of bioactivity for the suppression of LH (rating in words) (secretion of LH; 50 micrograms sc): long duration
- suppression of LH compared with Acyline at 96 hours / 4 days (after day 3) (secretion of LH; 50 micrograms sc, 96 hours): somewhat superior
- effectiveness in suppression of LH compared with Acyline, day 1 through day 3 (secretion of LH; 50 micrograms sc): substantially the same as Acyline

Molecule: Ac-D-2Nal-D-4Cpa-D-3Pal-Ser-4Aph(hydroorotyl)-D-4Amf(MeCbm)-Leu-ILys-Pro-D-Ala-NH2 [Example 4]
- duration of bioactivity for the suppression of LH (rating in words) (secretion of LH; 50 micrograms sc): very long-acting
- suppression of LH secretion compared with Acyline (time not given) (secretion of LH; 50 micrograms sc): better suppression of LH secretion than Acyline

Molecule: Ac-D-2Nal-D-4Cpa-D-3Pal-Ser-4Aph(hydroorotyl)-D-Cit-Leu-ILys-Pro-D-Ala-NH2 [Example 2]
- hydrophilicity compared with Cetrorelix [1]: more hydrophilic than Cetrorelix
- suppression of LH at 3 days (comparator apparently Cetrorelix) (secretion of LH; tested as in Example 1, 3 days): marginally better
- suppression of LH at 96 hours (comparator apparently Cetrorelix) (secretion of LH; tested as in Example 1, 96 hours): substantially better
- duration of bioactivity for suppression of LH secretion compared with Cetrorelix (secretion of LH; tested as in Example 1, dose not given): as long duration of bioactivity as Cetrorelix

Molecule: Ac-β-D-2Nal-D-4Cpa-D-3Pal-Ser-4Amf(D-hydroorotyl)-D-4Aph(acetyl)-Leu- Lys(isopropyl)-Pro-D-Ala-NH2 [Example 6C]
- activity in suppression of LH secretion compared with Acyline after 3 days (secretion of LH; 50 micrograms sc, 3 days): substantially less effective than Acyline
- suppression of LH compared with Acyline at 96 hours / 4 days (after day 3) (secretion of LH; 50 micrograms sc, 96 hours): continues to significantly drop in biopotency
- effectiveness in suppression of LH compared with Acyline, first two days (secretion of LH; 50 micrograms sc): substantially as effective

Molecule: Ac-β-D-2Nal-D-4Cpa-D-3Pal-Ser-4Amf(hydroorotyl)-D-4Amf(acetyl)-Leu-Lys(isopropyl)-Pro-D-Ala-NH2 [Example 6]
- duration of bioactivity for the suppression of LH (rating in words) (secretion of LH; 50 micrograms sc): long-acting
- effectiveness in suppression of LH compared with Acyline, first two days (secretion of LH; 50 micrograms sc): about the same as Acyline
- suppression of LH compared with Acyline at days 3 and 4 (72 and 96 hours; after the first 2 days) (secretion of LH; 50 micrograms sc): nearly equal to that of Acyline

Molecule: Ac-β-D-2Nal-D-4Cpa-D-3Pal-Ser-4Amf(hydroorotyl)-D-4Aph(acetyl)-Leu-Lys(isopropyl)-Pro-D-Ala-NH2 [Example 1F]
- duration of bioactivity for the suppression of LH (rating in words) (secretion of LH; 50 micrograms sc): long-acting
- effectiveness in suppression of LH compared with Acyline, day 1 through day 4 (96 hours) (secretion of LH; 50 micrograms sc): about as effective as Acyline

Molecule: Ac-β-D-2Nal-D-4Cpa-D-3Pal-Ser-4Amf(hydroorotyl)-D-4Aph(carbamoyl)-Leu-Lys(isopropyl)-Pro-D-Ala-NH2 [Example 6A]
- activity in suppression of LH secretion compared with Acyline after 1 day (secretion of LH; 50 micrograms sc): as active as Acyline
- activity in suppression of LH secretion compared with Acyline after 2 days (secretion of LH; 50 micrograms sc): nearly as active
- activity in suppression of LH secretion compared with Acyline after 3 days (secretion of LH; 50 micrograms sc, 3 days): somewhat less active
- suppression of LH compared with Acyline at 96 hours / 4 days (after day 3) (secretion of LH; 50 micrograms sc, 96 hours): about the same activity as Acyline

Molecule: Ac-β-D-2Nal-D-4Cpa-D-3Pal-Ser-4Amf(hydroorotyl)-D-4Aph(methylcarbamoyl)-Leu-Lys(isopropyl)-Pro-D-Ala-NH2 [Example 6B]
- activity in suppression of LH secretion compared with Acyline after 1 day (secretion of LH; 50 micrograms sc): as active as Acyline
- activity in suppression of LH secretion compared with Acyline after 2 days (secretion of LH; 50 micrograms sc): about as active
- suppression of LH compared with Acyline at days 3 and 4 (72 and 96 hours; after the first 2 days) (secretion of LH; 50 micrograms sc): significantly lesser degree of suppression

Molecule: Ac-β-D-2Nal-D-4Cpa-D-3Pal-Ser-4Aph(hydroorotyl)-D-4Aph(D-hydroorotyl)-Leu-Lys(isopropyl)-Pro-D-Ala-NH2 [Example 1H]
- hydrophilicity compared with Azaline B ([1]; RP-HPLC elution): more hydrophilic than Azaline B
- duration of bioactivity for the suppression of LH (rating in words) (secretion of LH; 50 micrograms sc): very long-acting
- suppression of LH compared with Acyline at 96 hours / 4 days (after day 3) (secretion of LH; 50 micrograms sc, 96 hours): substantially more effective than Acyline
- effectiveness in suppression of LH compared with Acyline, day 1 through day 3 (secretion of LH; 50 micrograms sc): about as effective as Acyline

Molecule: Ac-β-D-2Nal-D-Cpa-D-3Pal-Ser-4Aph(D-hydroorotyl)-D-4Aph(acetyl)-Leu-Lys(isopropyl)-Pro-D-Ala-NH2 [Example 1D]
- duration of bioactivity for the suppression of LH (rating in words) (secretion of LH; 50 micrograms sc): long-acting
- effectiveness in suppression of LH compared with Acyline, day 1 through day 4 (96 hours) (secretion of LH; 50 micrograms sc): about as effective as Acyline

Molecule: Ac-β-D-2Nal-D-Cpa-D-3Pal-Ser-4Aph(D/L-hydroorotyl)-D-4Aph(acetyl)-Leu-Lys(isopropyl)-Pro-D-Ala-NH2 [Example 1C]
- duration of bioactivity for the suppression of LH (rating in words) (secretion of LH; 50 micrograms sc): long-acting
- effectiveness in suppression of LH compared with Acyline, day 1 through day 4 (96 hours) (secretion of LH; 50 micrograms sc): about as effective as Acyline

Molecule: Ac-β-D-2Nal-D-Cpa-D-3Pal-Ser-4Aph(hydroorotyl)-D-4Aph(acetyl)-Leu-Lys(isopropyl)-Pro-D-Ala-NH2 [Example 1B]
- duration of bioactivity for the suppression of LH (rating in words) (secretion of LH; 50 micrograms sc): very long-acting
- effectiveness in suppression of LH compared with Acyline, day 1 through day 4 (96 hours) (secretion of LH; 50 micrograms sc): about as effective as Acyline

Molecule: Acetyl-β-D-2Nal-D-4Cpa-D-3Pal-Ser-4Aph(hydroorotyl)-D-3Pal-Leu-Lys(isopropyl)-Pro-D-Ala-NH2 [Example 1K]
- duration of bioactivity for the suppression of LH (rating in words) (secretion of LH; 50 micrograms sc): very long-acting
- LH levels after 96 hours as percentage of the LH levels of rats injected with Acyline (secretion of LH; 50 micrograms sc, 96 hours, comparator Acyline 50 micrograms): about 35%
- effectiveness in suppression of LH compared with Acyline, day 1 through day 3 (secretion of LH; 50 micrograms sc): about as effective as Acyline
